Measurements as given in article PMC11206988, “Study on the Effect of Pharmaceutical Excipient PEG400 on the Pharmacokinetics of Baicalin in Cells Based on MRP2, MRP3, and BCRP Efflux Transporters” (Pharmaceutics, 2024).
Like-named read-outs stand apart in the source and are kept apart here.

How the values were obtained:
Type in all cases: in vitro ADME
[1] = Transport of baicalin across MDCK II-WT cell monolayer (transwell); conditions: dog, MDCK, pH 7.4, MDCK II-WT; for efflux ratio at 120 min, 100 μM: read-out: ER
Procedure: (§1) The cells were inoculated at a density of 0.5 mL (1 × 10^5) in the upper layer of the transwell plate (AP side), and the culture was changed daily after the lower layer was added with 1.5 mL of complete medium without cells every other day. After 5–7 days of growth, the supernatant was aspirated and discarded, and the cell monolayer was rinsed twice with 37 °C Hank’s Balanced Salt Solution (HBSS, pH 7.4). The electrical resistance of the cell monolayer compartments was measured with a resistivity meter (TEER), and the integrity of the cell monolayer was monitored using TEER. The differentiation of MDCK II-WT, MDCK II-MRP2, MDCK II-MRP3, and MDCK II-BCRP cells was examined by determining sodium fluorescein permeability prior to transit experiments. This was done in order to determine the integrity of the cell monolayer. When the TEER value of the cell monolayer was greater than 150 Ω·cm^2 and the MDCK II-MRP2, MDCK II-MRP3, and MDCK II-BCRP sodium fluorescein permeability was less than 0.5 × 10^−6 cm/s or the MDCK II-WT sodium fluorescein permeability was less than 1 × 10^−6 cm/s, the cell monolayer was considered intact and suitable for transit experiments. TEER = (TEERcell monolayer − TEERblank) × Aarea(1) wherein TEERcell monolayer is the resistance of the cell monolayer read directly from the Millicell ERS-2 resistivity meter, and TEERblank is the resistance read by inserting a blank HBSS (no cells) only. Aarea is the surface area of the filter membrane, 1.12 cm^2.
(§2) In this experiment, a 100 μM baicalin solution (dissolved in HBSS) containing different concentrations of PEG400 (0.25%, 0.5%, and 1%) was employed as the test solution, while a solution without PEG400 was used as the blank test solution, which was added to AP or BL chambers, respectively. In the top to basolateral (AP-BL) transport experiment, the 0.5 mL sample added to the apical side (AP) was utilized as the supply room, and the HBSS preheated to 1.5 mL 37 °C was added to the basolateral (BL) as the receiving chamber. Conversely, in the basal low lateral to top (BL-AP) transport experiment, the 1.5 mL sample (dissolved in HBSS) was added to the BL side as the supply room, and the 0.5 mL preheated HBSS was added as a receiving room on the AP side. Once the aforementioned steps had been completed, the transwell was placed on a 37 °C thermostatic oscillator at 60 r/min, and 100 μL was withdrawn from the receiving cell or 10 μL from the supply chamber at 30, 60, 90, and 120 min, depending on the experiment, and replenished with an equal volume of blank 37 °C preheated HBSS. The samples were utilized to precipitate the proteins with 100 μL of methanol containing the internal standard for 10 min. After centrifugation at 16,000× g for 15 min at 4 °C, the supernatant was collected in a volume of 70 μL. The contents were determined by UPLC-MS/MS, and apparent permeability coefficients (PAPP) and efflux ratios (ER) were calculated.
(§3) The formulas for calculating Papp and ER of monolayer and monolayer are as follows:(2) Papp=dQ/dt/AC0 wherein dQ/dt (ng/mL·s) is the transit rate (ng/mL·s); A is the membrane area (1.12 cm^2); and C0 (ng/mL) is the initial concentration of the sample in the supply chamber. ER = PappBL-AP/PappAP-BL (3) wherein PappBL-AP is the apparent permeability coefficient when the BL is added to the sample, and PappAP-BL is the apparent permeability coefficient when the sample is added at the top side (AP).

MDCK II-WT cells = assay: as above; conditions: MDCK II-WT
Procedure: as §1, §2, §3

MRP2 = biological target: T1, MRP2 (Homo sapiens, UniProt Q92887); assay: Transport of baicalin across MDCK II-MRP2 cell monolayer (transwell)
T1 construct: expressed in transfected cells; host or cells: MDCK II
Procedure: as §1, §2, §3

MDCK II-MRP3 = biological target: T2, MDCK II-MRP3 (Homo sapiens, UniProt O15438); assay: Transport of baicalin across MDCK II-MRP3 cell monolayer (transwell); conditions: MDCK II-MRP3; high-concentration PEG400 group vs control group
T2 construct: host or cells: MDCK II
Procedure: as §1, §2, §3

MRP3 = biological target: T3, MRP3 (Homo sapiens, UniProt O15438); assay: as above; conditions: human, pH 7.4, MDCK II-MRP3
T3 construct: host or cells: MDCK II
Procedure: as §1, §2, §3

[2] = pH 7.4, MDCK II-MRP2, 100 μM BG + 0.25% PEG400
[3] = pH 7.4, MDCK II-MRP2, 100 μM BG + 0.5% PEG400
[4] = pH 7.4, MDCK II-MRP2, 100 μM BG + 1% PEG400
[5] = pH 7.4, MDCK II-MRP2, 100 μM BG alone

T1 sequence (Q92887 whole entry): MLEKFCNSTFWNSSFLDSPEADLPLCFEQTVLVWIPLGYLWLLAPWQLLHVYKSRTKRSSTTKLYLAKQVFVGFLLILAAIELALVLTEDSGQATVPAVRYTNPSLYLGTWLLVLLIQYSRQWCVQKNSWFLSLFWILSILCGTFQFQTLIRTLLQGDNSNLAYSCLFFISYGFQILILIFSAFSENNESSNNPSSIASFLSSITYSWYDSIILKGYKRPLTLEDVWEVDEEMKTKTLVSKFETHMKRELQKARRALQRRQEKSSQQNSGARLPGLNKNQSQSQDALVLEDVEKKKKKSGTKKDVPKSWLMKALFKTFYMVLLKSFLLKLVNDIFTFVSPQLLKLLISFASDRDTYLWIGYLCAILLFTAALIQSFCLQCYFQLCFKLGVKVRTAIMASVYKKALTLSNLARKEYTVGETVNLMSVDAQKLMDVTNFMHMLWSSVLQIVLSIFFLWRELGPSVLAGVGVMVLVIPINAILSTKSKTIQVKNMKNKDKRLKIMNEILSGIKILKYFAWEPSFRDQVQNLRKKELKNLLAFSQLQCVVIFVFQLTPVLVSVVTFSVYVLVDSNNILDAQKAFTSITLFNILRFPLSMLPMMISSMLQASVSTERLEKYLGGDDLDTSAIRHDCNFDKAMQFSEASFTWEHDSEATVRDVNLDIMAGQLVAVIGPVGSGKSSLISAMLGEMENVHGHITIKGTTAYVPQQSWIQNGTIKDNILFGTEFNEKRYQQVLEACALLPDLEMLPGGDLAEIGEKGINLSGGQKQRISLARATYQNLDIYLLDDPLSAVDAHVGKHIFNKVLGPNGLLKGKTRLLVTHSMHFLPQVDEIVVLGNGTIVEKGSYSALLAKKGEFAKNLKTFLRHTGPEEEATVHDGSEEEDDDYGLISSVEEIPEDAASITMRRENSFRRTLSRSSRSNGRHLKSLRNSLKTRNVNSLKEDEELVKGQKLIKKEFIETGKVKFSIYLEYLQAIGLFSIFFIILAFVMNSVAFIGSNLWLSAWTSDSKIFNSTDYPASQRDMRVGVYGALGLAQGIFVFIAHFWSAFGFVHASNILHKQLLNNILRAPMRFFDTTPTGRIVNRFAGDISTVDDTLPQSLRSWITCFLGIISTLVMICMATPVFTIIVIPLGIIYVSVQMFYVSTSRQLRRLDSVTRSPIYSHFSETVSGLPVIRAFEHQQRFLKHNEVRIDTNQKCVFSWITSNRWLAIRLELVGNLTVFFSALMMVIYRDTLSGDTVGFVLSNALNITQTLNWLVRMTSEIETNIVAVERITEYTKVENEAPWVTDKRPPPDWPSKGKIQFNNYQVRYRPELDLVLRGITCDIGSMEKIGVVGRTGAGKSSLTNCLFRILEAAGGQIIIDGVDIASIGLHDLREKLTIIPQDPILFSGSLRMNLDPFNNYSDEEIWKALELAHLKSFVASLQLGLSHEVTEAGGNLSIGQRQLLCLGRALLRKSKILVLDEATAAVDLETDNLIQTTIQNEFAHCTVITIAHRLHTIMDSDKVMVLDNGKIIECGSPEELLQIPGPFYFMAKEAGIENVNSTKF
T3 sequence (O15438 whole entry): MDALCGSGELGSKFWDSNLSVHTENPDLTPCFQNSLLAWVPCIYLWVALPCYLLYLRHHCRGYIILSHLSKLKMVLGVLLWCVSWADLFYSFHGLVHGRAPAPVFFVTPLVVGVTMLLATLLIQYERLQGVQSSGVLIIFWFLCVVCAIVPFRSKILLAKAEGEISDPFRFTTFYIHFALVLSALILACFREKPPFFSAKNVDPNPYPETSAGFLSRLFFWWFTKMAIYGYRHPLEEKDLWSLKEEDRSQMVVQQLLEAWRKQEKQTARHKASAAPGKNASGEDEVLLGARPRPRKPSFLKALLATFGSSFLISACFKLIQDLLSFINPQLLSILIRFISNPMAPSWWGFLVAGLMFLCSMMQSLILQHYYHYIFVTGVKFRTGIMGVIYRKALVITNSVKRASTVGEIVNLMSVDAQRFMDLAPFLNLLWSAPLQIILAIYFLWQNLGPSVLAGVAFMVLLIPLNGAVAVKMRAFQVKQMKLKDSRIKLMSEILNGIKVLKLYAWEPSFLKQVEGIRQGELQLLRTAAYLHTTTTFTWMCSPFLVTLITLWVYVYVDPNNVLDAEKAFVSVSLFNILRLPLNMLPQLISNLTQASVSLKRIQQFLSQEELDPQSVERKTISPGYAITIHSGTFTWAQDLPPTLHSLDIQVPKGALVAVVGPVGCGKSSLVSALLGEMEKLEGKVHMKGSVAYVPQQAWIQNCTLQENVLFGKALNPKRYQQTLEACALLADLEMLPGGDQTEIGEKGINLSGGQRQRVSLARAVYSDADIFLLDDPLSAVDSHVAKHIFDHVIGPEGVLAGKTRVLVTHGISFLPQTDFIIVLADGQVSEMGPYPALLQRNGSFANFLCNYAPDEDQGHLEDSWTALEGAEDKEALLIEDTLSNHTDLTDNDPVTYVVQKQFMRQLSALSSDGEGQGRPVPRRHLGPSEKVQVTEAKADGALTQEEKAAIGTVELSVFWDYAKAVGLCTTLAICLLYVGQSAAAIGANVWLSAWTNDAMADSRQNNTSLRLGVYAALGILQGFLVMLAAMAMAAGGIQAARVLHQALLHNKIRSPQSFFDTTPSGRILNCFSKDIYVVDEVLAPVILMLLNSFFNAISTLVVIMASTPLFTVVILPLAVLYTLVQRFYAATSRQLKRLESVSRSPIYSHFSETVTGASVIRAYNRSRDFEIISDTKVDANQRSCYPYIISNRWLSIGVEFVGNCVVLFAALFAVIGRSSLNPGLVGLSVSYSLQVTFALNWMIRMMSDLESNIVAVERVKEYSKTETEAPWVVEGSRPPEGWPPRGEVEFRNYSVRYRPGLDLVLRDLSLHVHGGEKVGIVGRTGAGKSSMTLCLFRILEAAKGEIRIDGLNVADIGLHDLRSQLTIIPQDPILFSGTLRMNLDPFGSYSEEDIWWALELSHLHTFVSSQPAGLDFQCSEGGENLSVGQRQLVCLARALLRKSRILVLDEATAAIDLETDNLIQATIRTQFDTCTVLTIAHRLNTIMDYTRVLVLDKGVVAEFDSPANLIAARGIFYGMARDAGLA
T2 sequence (O15438 whole entry): as above

SMILES: O=C(O)[C@H]1O[C@@H](Oc2cc3oc(-c4ccccc4)cc(=O)c3c(O)c2O)[C@H](O)[C@@H](O)[C@@H]1O [BG, Baicalein-7-O-β-D-glucuronide]
- Papp A→B at 120 min, 100 μM ([1]; 100 μM BG + 0.25% PEG400): 4.57 ± 1.08 ×10⁻⁶ cm/s
- Papp B→A at 120 min, 100 μM ([1]; 100 μM BG + 0.25% PEG400): 7.94 ± 0.99 ×10⁻⁶ cm/s
- efflux ratio at 120 min, 100 μM ([1]; 100 μM BG + 0.25% PEG400): 1.94 ± 0.27
- Papp A→B at 120 min, 100 μM ([1]; 100 μM BG + 0.5% PEG400): 5.24 ± 0.53 ×10⁻⁶ cm/s
- Papp B→A at 120 min, 100 μM ([1]; 100 μM BG + 0.5% PEG400): 6.78 ± 1.19 ×10⁻⁶ cm/s
- efflux ratio at 120 min, 100 μM ([1]; 100 μM BG + 0.5% PEG400): 1.53 ± 0.14
- Papp A→B at 120 min, 100 μM ([1]; 100 μM BG + 1% PEG400): 5.47 ± 0.94 ×10⁻⁶ cm/s
- Papp B→A at 120 min, 100 μM ([1]; 100 μM BG + 1% PEG400): 3.61 ± 0.26 ×10⁻⁶ cm/s
- efflux ratio at 120 min, 100 μM ([1]; 100 μM BG + 1% PEG400): 1.19 ± 0.12
- Papp A→B at 120 min, 100 μM ([1]; 100 μM BG alone): 3.18 ± 0.07 ×10⁻⁶ cm/s
- Papp B→A at 120 min, 100 μM ([1]; 100 μM BG alone): 11.6 ± 1 ×10⁻⁶ cm/s
- efflux ratio at 120 min, 100 μM ([1]; 100 μM BG alone): 2.58 ± 0.27
- ER (MDCK II-WT cells; 100 μM BG + 0.25% PEG400): 1.8 ± 0.44
- ER (MDCK II-WT cells; 100 μM BG + 0.5% PEG400): 1.29 ± 0.11
- ER (MDCK II-WT cells; 100 μM BG + 1% PEG400): 0.67 ± 0.07
- ER (MDCK II-WT cells; 100 μM BG alone): 3.64 ± 0.28
- Papp A→B at 120 min, 100 μM (MRP2; [2]): 1.27 ± 0.02 ×10⁻⁶ cm/s
- Papp B→A at 120 min, 100 μM (MRP2; [2]): 2.83 ± 0.26 ×10⁻⁶ cm/s
- efflux ratio at 120 min, 100 μM (MRP2; pH 7.4, MDCK II-MRP2, 100 μM BG + 0.25% PEG400, read-out: ER): 2.22 ± 0.17
- Papp A→B at 120 min, 100 μM (MRP2; [3]): 2.51 ± 0.07 ×10⁻⁶ cm/s
- Papp B→A at 120 min, 100 μM (MRP2; [3]): 2.73 ± 0.31 ×10⁻⁶ cm/s
- efflux ratio at 120 min, 100 μM (MRP2; pH 7.4, MDCK II-MRP2, 100 μM BG + 0.5% PEG400, read-out: ER): 1.08 ± 0.09
- Papp A→B at 120 min, 100 μM (MRP2; [4]): 3.17 ± 0.06 ×10⁻⁶ cm/s
- Papp B→A at 120 min, 100 μM (MRP2; [4]): 2.53 ± 0.17 ×10⁻⁶ cm/s
- efflux ratio at 120 min, 100 μM (MRP2; pH 7.4, MDCK II-MRP2, 100 μM BG + 1% PEG400, read-out: ER): 0.8 ± 0.04
- Papp A→B at 120 min, 100 μM (MRP2; [5]): 1.12 ± 0.11 ×10⁻⁶ cm/s
- Papp B→A at 120 min, 100 μM (MRP2; [5]): 3.28 ± 0.27 ×10⁻⁶ cm/s
- efflux ratio at 120 min, 100 μM (MRP2; pH 7.4, MDCK II-MRP2, 100 μM BG alone, read-out: ER): 2.45 ± 0.04
- increase in the PAPPAP-BL/PAPP BL-AP ratio (MDCK II-MRP3): 5.97 fold
- Papp A→B at 120 min, 100 μM (MRP3; 100 μM BG + 0.25% PEG400): 1.06 ± 0.16 ×10⁻⁶ cm/s
- Papp B→A at 120 min, 100 μM (MRP3; 100 μM BG + 0.25% PEG400): 1.04 ± 0.08 ×10⁻⁶ cm/s
- Papp A→B at 120 min, 100 μM (MRP3; 100 μM BG + 0.5% PEG400): 1.77 ± 0.2 ×10⁻⁶ cm/s
- Papp B→A at 120 min, 100 μM (MRP3; 100 μM BG + 0.5% PEG400): 0.85 ± 0.1 ×10⁻⁶ cm/s
- Papp A→B at 120 min, 100 μM (MRP3; 100 μM BG + 1% PEG400): 2.65 ± 0.44 ×10⁻⁶ cm/s
- Papp B→A at 120 min, 100 μM (MRP3; 100 μM BG + 1% PEG400): 0.72 ± 0.16 ×10⁻⁶ cm/s
- Papp A→B at 120 min, 100 μM (MRP3; 100 μM BG alone): 0.74 ± 0.1 ×10⁻⁶ cm/s
- Papp B→A at 120 min, 100 μM (MRP3; 100 μM BG alone): 1.18 ± 0.08 ×10⁻⁶ cm/s
